“And” between values parts separate entries of the source, which are not always exact repeats. Identical values can stand only once. Values belong to the molecule of their own block, whether it stands above or below them.
Key:
BRISC = molecular target: T1, BRISC (Homo sapiens, UniProt P46736+Q15018+Q9NXR7); assay: Compound library screening and hit validation (IQF diubiquitin, 1 nM BRISC); assay type: biochemical; conditions: for BRISC, normalised activity (Ext. 1a): two replicate columns
T1 construct: made in house; host or cells: Spodoptera frugiperda (Sf9) insect cells, MultiBac
Method: Assays were performed in 384-well black flat-bottom low-flange plates (Corning, 35373) in buffer containing 50 mM HEPES–NaOH pH 7.0, 100 mM NaCl, 1 mg ml^−1 BSA, 1 mM DTT and 0.03% v/v Brij-35. Then, 10 μl of twofold concentrated enzyme stock was dispensed, followed by transfer of 200 nl of compounds (1 mM stock) using a 384-pin tool and a 15-min incubation at room temperature. Then, 10 μl of twofold concentrated substrate stock was added and the reaction was monitored by measuring fluorescence intensity (excitation, 540 nm; emission, 580 nm) after 20-min incubation at room temperature and ~50% of substrate was consumed. Orthogonal assays for verification of H20 and P12 hit compounds using USP2 (100 nM) and trypsin (125 nM) were performed in identical conditions.

[1] = molecular target: T2, panel of 48 purified DUBs (Homo sapiens, UniProt P51784); assay: DUB selectivity profiling (DUBprofiler, ubiquitin–rhodamine(110)–glycine); assay type: biochemical; conditions: DUB USP11; screening concentration 5 μM; 5 µM
T2 construct: purchased Ubiquigent (DUBprofiler service)
Method: (§1) Biochemical selectivity profiling (DUBprofiler) was performed by Ubiquigent with a panel of 48 purified DUBs and ubiquitin–rhodamine(110)–glycine as a fluorescent substrate.

[2] = molecular target: T3, panel of 48 purified DUBs (Homo sapiens, UniProt Q86UV5); assay: as above; assay type: biochemical; conditions: DUB USP48; screening concentration 5 μM; 5 µM
T3 construct: purchased Ubiquigent (DUBprofiler service)
Method: as §1

[3] = molecular target: T4, panel of 48 purified DUBs (Homo sapiens, UniProt Q92560); assay: as above; assay type: biochemical; conditions: DUB BAP1; screening concentration 5 μM; 5 µM
T4 construct: purchased Ubiquigent (DUBprofiler service)
Method: as §1

[4] = molecular target: T5, panel of 48 purified DUBs (Homo sapiens, UniProt Q93009); assay: as above; assay type: biochemical; conditions: DUB USP7; screening concentration 5 μM; 5 µM
T5 construct: purchased Ubiquigent (DUBprofiler service)
Method: as §1

[5] = molecular target: T6, panel of 48 purified DUBs (Homo sapiens, UniProt Q9UK80); assay: as above; assay type: biochemical; conditions: DUB USP21; screening concentration 5 μM
T6 construct: purchased Ubiquigent (DUBprofiler service)
Method: as §1

[6] = molecular target: T7, panel of 48 purified DUBs (Homo sapiens, UniProt Q9Y5K5); assay: as above; assay type: biochemical; conditions: DUB UCHL5; screening concentration 5 μM; 5 µM
T7 construct: purchased Ubiquigent (DUBprofiler service)
Method: as §1

CfBRISCΔNΔC = CfBRISCΔNΔC IQF DUB activity assay; assay type: biochemical, ant (Camponotus floridanus); conditions: for Normalised V0: CfBRISCΔNΔC
Method: (§2) IQF assays were performed in DUB reaction buffer containing 50 mM HEPES–NaOH pH 7.0, 100 mM NaCl, 0.1 mg ml^−1 BSA, 1 mM DTT and 0.03% v/v Brij-35. […] The final concentration of BRISC WT, all BRISC mutants, HsBRISCΔLoop, MmBRISC and DrBRISCΔNΔC was 1 nM. Other enzymes were tested at the following concentrations: 5 nM ARISC (FL), 10 nM CfBRISCΔNΔC, 250 nM AMSH* (ref. [43]), 500 nM USP2 and 1 μM trypsin (Sigma, 9002-07-7). For Michaelis–Menten experiments, 1 nM BRISC with 0–1 μM IQF K63-linked diubiquitin substrate was used. Michaelis–Menten analyses and Lineweaver–Burk plots were calculated using GraphPad Prism (version 9.0).
(§3) To assess enzymatic activity, BRISC complexes were diluted to concentrations between 1 nM and 50 nM. […] Then, 20-μl enzyme reactions were carried out in 384-well black flat-bottom low-flange plates (Corning, 35373). DUB activity was measured using IQF K63-linked diubiquitin (LifeSensors, DU6303) at 50 nM. Cleaved diubiquitin was monitored by measuring fluorescence intensity (excitation, 544 nm; emission, 575 nm; dichroic mirror, 560 nm). Fluorescence intensity was measured every minute for 30 min at 30 °C. Fluorescence intensity units were plotted against time to generate a linear reaction progress curve, where the initial velocity (V0) corresponds to the gradient of the curve (typically achieved within 15 min). IC50 values were calculated using the GraphPad Prism (version 9.0) built-in dose–response equation for inhibitor concentration versus response (variable slope).

BRISC BRCC36 L169W = BRISC BRCC36 L169W (Homo sapiens, UniProt P46736+Q15018+Q9NXR7, L169W); assay: BRISC mutant IQF assay: BRCC36 L169W; assay type: biochemical
Method: as §2, §3

BRISC BRCC45 R137A = BRISC BRCC45 R137A (Homo sapiens, UniProt P46736+Q15018+Q9NXR7, R137A); assay: BRISC mutant IQF assay: BRCC45 R137A; assay type: biochemical
Method: as §2, §3

[7] = FX-171-C 12.5 μM, read-out: Normalised V0
[8] = FX-171-C 25 μM, read-out: Normalised V0

T3 sequence (Q86UV5 whole entry): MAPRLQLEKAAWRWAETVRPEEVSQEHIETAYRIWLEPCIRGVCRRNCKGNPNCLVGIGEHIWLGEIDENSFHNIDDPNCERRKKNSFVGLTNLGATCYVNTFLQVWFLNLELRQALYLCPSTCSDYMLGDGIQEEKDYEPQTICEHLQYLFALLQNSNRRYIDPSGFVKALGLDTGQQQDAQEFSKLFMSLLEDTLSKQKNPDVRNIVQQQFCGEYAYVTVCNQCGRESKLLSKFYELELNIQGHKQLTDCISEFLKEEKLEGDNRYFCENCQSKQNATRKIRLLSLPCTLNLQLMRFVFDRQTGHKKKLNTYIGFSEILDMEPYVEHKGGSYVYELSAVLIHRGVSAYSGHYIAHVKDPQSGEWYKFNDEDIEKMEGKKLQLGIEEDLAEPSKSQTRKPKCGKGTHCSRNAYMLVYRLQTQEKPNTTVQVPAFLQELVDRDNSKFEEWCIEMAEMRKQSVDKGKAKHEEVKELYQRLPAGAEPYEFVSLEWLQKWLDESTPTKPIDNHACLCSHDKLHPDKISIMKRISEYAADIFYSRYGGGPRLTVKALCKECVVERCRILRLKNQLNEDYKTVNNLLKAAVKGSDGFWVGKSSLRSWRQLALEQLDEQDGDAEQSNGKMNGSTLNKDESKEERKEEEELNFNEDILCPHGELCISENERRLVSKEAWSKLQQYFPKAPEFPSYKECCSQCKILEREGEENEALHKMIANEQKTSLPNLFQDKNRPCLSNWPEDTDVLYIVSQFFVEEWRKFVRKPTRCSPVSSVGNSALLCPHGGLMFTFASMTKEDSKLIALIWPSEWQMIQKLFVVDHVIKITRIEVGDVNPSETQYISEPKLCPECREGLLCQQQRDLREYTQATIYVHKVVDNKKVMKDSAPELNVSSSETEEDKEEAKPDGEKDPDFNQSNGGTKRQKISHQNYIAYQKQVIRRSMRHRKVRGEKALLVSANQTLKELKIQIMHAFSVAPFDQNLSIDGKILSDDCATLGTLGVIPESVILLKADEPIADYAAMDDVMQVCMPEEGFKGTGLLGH
T2 sequence (P51784 whole entry): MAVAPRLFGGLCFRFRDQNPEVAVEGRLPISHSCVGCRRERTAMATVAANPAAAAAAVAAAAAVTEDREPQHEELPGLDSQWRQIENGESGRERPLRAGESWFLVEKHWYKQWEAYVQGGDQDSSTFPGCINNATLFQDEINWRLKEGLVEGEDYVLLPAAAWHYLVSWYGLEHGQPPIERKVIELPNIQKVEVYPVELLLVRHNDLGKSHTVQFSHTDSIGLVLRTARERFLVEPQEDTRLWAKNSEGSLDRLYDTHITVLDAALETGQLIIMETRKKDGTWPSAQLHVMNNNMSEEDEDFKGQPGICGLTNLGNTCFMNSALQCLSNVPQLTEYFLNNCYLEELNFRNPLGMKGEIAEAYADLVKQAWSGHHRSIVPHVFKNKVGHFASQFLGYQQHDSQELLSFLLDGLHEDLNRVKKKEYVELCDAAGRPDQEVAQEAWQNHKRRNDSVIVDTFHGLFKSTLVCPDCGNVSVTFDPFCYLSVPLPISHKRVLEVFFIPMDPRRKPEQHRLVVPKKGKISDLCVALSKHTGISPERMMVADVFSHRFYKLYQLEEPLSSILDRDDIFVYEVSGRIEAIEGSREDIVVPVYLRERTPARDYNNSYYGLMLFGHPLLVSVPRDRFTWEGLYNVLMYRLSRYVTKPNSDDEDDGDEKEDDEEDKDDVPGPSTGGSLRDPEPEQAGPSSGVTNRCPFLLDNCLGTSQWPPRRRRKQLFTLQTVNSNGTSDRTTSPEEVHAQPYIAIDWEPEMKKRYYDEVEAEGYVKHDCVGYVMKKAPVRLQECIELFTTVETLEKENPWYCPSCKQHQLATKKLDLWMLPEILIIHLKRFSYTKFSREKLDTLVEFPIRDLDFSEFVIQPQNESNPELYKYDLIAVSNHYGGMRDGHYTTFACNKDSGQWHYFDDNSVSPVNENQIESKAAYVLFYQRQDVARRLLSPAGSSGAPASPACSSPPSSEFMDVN
T7 sequence (Q9Y5K5 whole entry): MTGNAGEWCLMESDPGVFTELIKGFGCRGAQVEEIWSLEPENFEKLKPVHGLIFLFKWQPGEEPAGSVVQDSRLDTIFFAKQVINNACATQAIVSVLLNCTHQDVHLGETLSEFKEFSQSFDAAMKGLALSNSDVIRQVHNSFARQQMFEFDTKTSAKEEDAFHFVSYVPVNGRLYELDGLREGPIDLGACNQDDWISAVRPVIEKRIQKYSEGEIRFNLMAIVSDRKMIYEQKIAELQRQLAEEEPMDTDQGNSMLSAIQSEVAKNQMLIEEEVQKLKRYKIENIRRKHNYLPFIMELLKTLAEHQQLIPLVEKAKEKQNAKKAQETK
T4 sequence (Q92560 whole entry): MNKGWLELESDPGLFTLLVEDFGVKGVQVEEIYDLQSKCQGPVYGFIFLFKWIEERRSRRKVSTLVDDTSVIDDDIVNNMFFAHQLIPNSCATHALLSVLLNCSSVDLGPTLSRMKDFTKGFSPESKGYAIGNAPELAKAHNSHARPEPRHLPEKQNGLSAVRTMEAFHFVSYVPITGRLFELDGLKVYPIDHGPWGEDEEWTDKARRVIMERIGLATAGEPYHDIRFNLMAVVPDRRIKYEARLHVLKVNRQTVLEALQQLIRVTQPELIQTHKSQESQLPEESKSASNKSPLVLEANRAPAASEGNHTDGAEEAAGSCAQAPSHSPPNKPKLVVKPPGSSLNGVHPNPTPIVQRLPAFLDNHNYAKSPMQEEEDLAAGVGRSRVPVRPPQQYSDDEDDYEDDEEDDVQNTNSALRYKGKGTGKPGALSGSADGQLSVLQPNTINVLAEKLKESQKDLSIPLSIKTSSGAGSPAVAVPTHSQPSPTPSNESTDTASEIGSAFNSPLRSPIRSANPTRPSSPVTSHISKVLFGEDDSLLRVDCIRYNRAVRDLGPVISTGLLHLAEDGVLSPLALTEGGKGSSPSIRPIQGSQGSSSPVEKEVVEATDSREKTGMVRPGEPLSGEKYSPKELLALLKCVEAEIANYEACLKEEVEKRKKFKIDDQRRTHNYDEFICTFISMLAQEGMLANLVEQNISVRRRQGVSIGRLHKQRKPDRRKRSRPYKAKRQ
T5 sequence (Q93009 whole entry): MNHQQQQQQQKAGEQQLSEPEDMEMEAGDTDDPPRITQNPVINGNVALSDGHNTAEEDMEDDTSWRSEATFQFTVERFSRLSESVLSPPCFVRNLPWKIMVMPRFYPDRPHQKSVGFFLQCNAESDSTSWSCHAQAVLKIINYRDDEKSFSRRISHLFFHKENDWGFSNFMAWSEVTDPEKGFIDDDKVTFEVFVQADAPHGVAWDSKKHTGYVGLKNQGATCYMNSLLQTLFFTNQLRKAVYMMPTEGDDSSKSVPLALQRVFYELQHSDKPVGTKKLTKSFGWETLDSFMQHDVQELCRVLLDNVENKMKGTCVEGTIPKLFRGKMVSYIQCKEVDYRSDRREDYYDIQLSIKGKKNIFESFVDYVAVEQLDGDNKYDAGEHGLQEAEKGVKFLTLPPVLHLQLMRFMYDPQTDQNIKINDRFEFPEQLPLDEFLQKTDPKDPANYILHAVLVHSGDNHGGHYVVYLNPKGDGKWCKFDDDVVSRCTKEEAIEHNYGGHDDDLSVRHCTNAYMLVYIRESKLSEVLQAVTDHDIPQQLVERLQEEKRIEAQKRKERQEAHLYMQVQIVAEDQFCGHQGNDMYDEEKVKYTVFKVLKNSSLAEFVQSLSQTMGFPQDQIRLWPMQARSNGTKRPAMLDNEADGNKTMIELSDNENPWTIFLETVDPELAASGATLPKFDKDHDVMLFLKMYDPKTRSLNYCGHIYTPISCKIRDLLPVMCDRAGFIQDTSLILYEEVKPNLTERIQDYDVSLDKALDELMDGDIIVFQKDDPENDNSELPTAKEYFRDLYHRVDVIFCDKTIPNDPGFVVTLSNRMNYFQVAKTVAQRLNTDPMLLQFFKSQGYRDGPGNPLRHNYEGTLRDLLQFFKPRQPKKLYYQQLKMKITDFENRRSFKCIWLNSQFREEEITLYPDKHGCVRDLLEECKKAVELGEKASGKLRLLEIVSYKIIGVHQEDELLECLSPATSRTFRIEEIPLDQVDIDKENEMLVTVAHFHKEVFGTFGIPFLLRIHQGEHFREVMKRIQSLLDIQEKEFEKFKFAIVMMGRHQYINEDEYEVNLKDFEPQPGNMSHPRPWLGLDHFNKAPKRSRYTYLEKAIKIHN
T6 sequence (Q9UK80 whole entry): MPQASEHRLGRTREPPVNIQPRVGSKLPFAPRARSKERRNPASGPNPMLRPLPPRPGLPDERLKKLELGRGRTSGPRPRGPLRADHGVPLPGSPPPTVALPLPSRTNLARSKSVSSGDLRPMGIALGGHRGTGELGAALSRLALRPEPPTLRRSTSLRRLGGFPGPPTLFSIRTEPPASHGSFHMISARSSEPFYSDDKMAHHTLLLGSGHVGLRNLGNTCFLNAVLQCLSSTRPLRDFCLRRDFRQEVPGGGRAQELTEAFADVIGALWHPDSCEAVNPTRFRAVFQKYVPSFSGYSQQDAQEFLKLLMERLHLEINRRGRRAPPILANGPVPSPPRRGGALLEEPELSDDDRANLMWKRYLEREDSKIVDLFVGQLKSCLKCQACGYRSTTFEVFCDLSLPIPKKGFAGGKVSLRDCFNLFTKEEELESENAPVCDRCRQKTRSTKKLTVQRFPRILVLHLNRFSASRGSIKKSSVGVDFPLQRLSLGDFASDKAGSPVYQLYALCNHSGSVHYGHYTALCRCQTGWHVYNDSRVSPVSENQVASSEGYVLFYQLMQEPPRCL

inhibition of BRISC, hit validation dose response (BRISC; BRISC 1 nM): selective inhibition
BRISC, normalised activity (Ext. 1a) (BRISC; log [compound (μM)] 0.1938, listed as H20): 0.7394 and 0.8570
BRISC, normalised activity (Ext. 1a) (BRISC; log [compound (μM)] 0.4949, listed as H20): 0.6725 and 0.7111
BRISC, normalised activity (Ext. 1a) (BRISC; log [compound (μM)] 0.7959, listed as H20): 0.4328 and 0.4373
BRISC, normalised activity (Ext. 1a) (BRISC; log [compound (μM)] 1.0969, listed as H20): 0.3601 and 0.3685
BRISC, normalised activity (Ext. 1a) (BRISC; log [compound (μM)] 1.3979, listed as H20): 0.2929 and 0.2927
BRISC, normalised activity (Ext. 1a) (BRISC; log [compound (μM)] 1.6990, listed as H20): 0.2472 and 0.2252
BRISC, normalised activity (Ext. 1a) (BRISC; log [compound (μM)] 2.0000, listed as H20): 0.2296 and 0.2103
BRISC, normalised activity (Ext. 1a) (BRISC; log [compound (μM)] 2.3010, listed as H20): 0.2316 and 0.1815
BRISC, normalised activity (Ext. 1a) (BRISC; log [compound (μM)] -0.1072, listed as H20): 0.9797 and 1.0152
BRISC, normalised activity (Ext. 1a) (BRISC; log [compound (μM)] -0.4082, listed as H20): 1.0306 and 1.0024
BRISC, normalised activity (Ext. 1a) (BRISC; log [compound (μM)] -0.7093, listed as H20): 1.0136 and 1.0571
BRISC, normalised activity (Ext. 1a) (BRISC; log [compound (μM)] -1.7100, normalisation point): 1.0000
normalised V0, Mean (BRISC; log[compound (μM)] 0.1931): 0.7989
normalised V0, Mean (BRISC; log[compound (μM)] 0.4942): 0.6361
normalised V0, Mean (BRISC; log[compound (μM)] 0.7959): 0.4437
normalised V0, Mean (BRISC; log[compound (μM)] 1.0969): 0.3773
normalised V0, Mean (BRISC; log[compound (μM)] 1.3979): 0.3064
normalised V0, Mean (BRISC; log[compound (μM)] 1.6990): 0.2332
normalised V0, Mean (BRISC; log[compound (μM)] 2.0000): 0.2301
normalised V0, Mean (BRISC; log[compound (μM)] 2.3010): 0.1610
normalised V0, Mean (BRISC; log[compound (μM)] -0.1079): 0.9141
normalised V0, Mean (BRISC; log[compound (μM)] -0.4089): 0.9318
normalised V0, Mean (BRISC; log[compound (μM)] -0.7212): 0.9518
normalised V0, Mean (BRISC; log[compound (μM)] -1.7212, normalisation point): 1.0000
Activity (% control) [1]: 102 % control and 100 % control
Activity (% control) [2]: 99 % control and 103 % control
Activity (% control) [3]: 92 % control and 96 % control
Activity (% control) [4]: 116 % control and 121 % control
Activity (% control) [5]: 93 % control
Activity (% control) [6]: 90 % control and 98 % control
SMILES: O=C(NC1CCNCC1)c1nn(C(=O)c2c(Cl)cccc2Cl)cc1NC(=O)c1c(Cl)cccc1Cl [JMS-175-2]

IC50 (BRISC BRCC36 L169W): 91 µM
reduction of inhibition over wild-type complex (BRISC BRCC36 L169W): > 100 fold
remaining activity at 0.0035 µM (BRISC BRCC36 L169W; FX-171-C 0.0035 μM, read-out: Normalised V0): 94%
remaining activity at 0.035 µM (BRISC BRCC36 L169W; FX-171-C 0.035 μM, read-out: Normalised V0): 91.9%
remaining activity at 0.35 µM (BRISC BRCC36 L169W; FX-171-C 0.35 μM, read-out: Normalised V0): 94%
remaining activity at 3.1 µM (BRISC BRCC36 L169W; FX-171-C 3.1 μM, read-out: Normalised V0): 93.5%
remaining activity at 6.25 µM (BRISC BRCC36 L169W; FX-171-C 6.25 μM, read-out: Normalised V0): 90.3%
remaining activity at 12.5 µM (BRISC BRCC36 L169W; [7]): 89.8%
remaining activity at 25 µM (BRISC BRCC36 L169W; [8]): 93.8%
remaining activity at 50 µM (BRISC BRCC36 L169W; FX-171-C 50 μM, read-out: Normalised V0): 84.8%
IC50 (BRISC BRCC45 R137A): > 100 µM
inhibitor sensitivity vs BRISC WT (BRISC BRCC45 R137A): reduced sensitivity to inhibition
remaining activity at 12.5 µM (BRISC BRCC45 R137A; [7]): 87.5%
remaining activity at 25 µM (BRISC BRCC45 R137A; [8]): 80.1%
SMILES: O=C(NC1C2CNCC21)c1nn(C(=O)c2c(Cl)cccc2Cl)cc1NC(=O)c1c(Cl)cccc1Cl (stereo not shown) [FX-171-C]
inhibition of ant BRISC (CfBRISCΔNΔC): no inhibition
Normalised V0 (CfBRISCΔNΔC; FX-171-C 0.013 μM): 0.8962 and 0.9603 and 0.9451 and 1.01 and 0.9065 and 0.9614
Normalised V0 (CfBRISCΔNΔC; FX-171-C 0.02 μM): 0.8823 and 0.9398 and 0.9125
Normalised V0 (CfBRISCΔNΔC; FX-171-C 0.0399999 μM): 0.8374 and 1.085 and 0.922
Normalised V0 (CfBRISCΔNΔC; FX-171-C 0.0599997 μM): 0.96 and 0.9545 and 0.8432
Normalised V0 (CfBRISCΔNΔC; FX-171-C 0.0799994 μM): 0.96 and 1.021 and 0.8317
Normalised V0 (CfBRISCΔNΔC; FX-171-C 0.119998 μM): 0.912 and 0.9545 and 0.6902
Normalised V0 (CfBRISCΔNΔC; FX-171-C 0.199996 μM): 0.9393 and 1.029 and 0.809
Normalised V0 (CfBRISCΔNΔC; FX-171-C 0.499975 μM): 0.8932 and 0.9706 and 1.16
Normalised V0 (CfBRISCΔNΔC; FX-171-C 0.799937 μM): 0.8483 and 0.9187 and 0.8448
Normalised V0 (CfBRISCΔNΔC; FX-171-C 1.25984 μM): 0.9211 and 1.122 and 1.015
Normalised V0 (CfBRISCΔNΔC; FX-171-C 1.9996 μM): 0.9132 and 0.9123 and 0.84
Normalised V0 (CfBRISCΔNΔC; FX-171-C 3.159 μM): 0.9417 and 1.133 and 0.9365
Normalised V0 (CfBRISCΔNΔC; FX-171-C 5.19739 μM): 0.9697 and 1.085 and 0.6282
Normalised V0 (CfBRISCΔNΔC; FX-171-C 7.99364 μM): 0.932 and 1.064 and 1.2693
Normalised V0 (CfBRISCΔNΔC; FX-171-C 12.7839 μM): 1.03 and 1.045 and 0.7909
Normalised V0 (CfBRISCΔNΔC; FX-171-C 19.96 μM): 1.048 and 1.129 and 1.039
Normalised V0 (CfBRISCΔNΔC; FX-171-C 31.4999 μM): 0.9199 and 1.137 and 0.9151
Normalised V0 (CfBRISCΔNΔC; FX-171-C 50.147 μM): 0.8823 and 1.1 and 0.9082
Normalised V0 (CfBRISCΔNΔC; FX-171-C 79.7601 μM): 0.9478 and 0.9802 and 1.294
Normalised V0 (CfBRISCΔNΔC; FX-171-C 125.99 μM): 0.8064 and 1.008 and 0.9331
Normalised V0 (CfBRISCΔNΔC; FX-171-C 199.922 μM): 1.048 and 0.9667 and 0.9357

Reference: publication PMC7617869, “Molecular glues that inhibit deubiquitylase activity and inflammatory signaling” (Nature Structural & Molecular Biology, 2025)
